Measured values taken from US5912259A, “Method for treating and preventing neurodegenerative disorders by administering a thiazolidinone” (Warner-Lambert Company, priority 1998, dated 1999).

Tests used:
[1] = system: experimental autoimmune encephalomyelitis (EAE); assay: Experimental autoimmune encephalomyelitis (EAE) in mice, Experiment 2; assay type: in vivo, mouse, PL/J(F1)×SJL/J; conditions: sensitized
Experimental: The thiazolidinone was evaluated in a mouse model of experimental autoimmune encephalomyelitis (EAE). The compound was administered orally to mice sensitized with a fragment of mouse myelin basic protein to induce EAE. Two experiments were conducted using the same protocol and neurological evaluations. Test animals were dosed for 21 days, beginning 4 hours before sensitization on Day 1. The effects of the thiazolidinone were compared to a control group of mice sensitized identically and dosed with vehicle alone. Neurological evaluations continued after cessation of drug treatment. The values reported in Tables 1 and 2 below include responses during drug treatment only.
The thiazolidinone was homogenized manually with an aliquot of warm vehicle (0.5% hydroxypropyl methylcellulose with 0.2% Tween 80in water) in glass mortar tubes and homogenizing pestle. The smooth drug paste was gradually suspended in vehicle. Mice were dosed with drug and/or vehicle, […] in groups of ten (Experiment 1) or twenty (Experiment 2). Mice were dosed from Experiment Day 1 to Day 21. A sham-sensitized group was similarly dosed with vehicle or thiazolidinone 30 mg/kg (Experiment 1).
Female mice, strain PL/J(F1)×SJL/J from Jackson Labs, were sensitized s.c. (0.05 cc×2) at the base of the tail with an emulsion containing equal parts of mouse myelin basic protein (MBP) fragment (amino acids 1-9 of the N-terminus of MBP) in saline and Difco Complete Freund's Adjuvant (CFA) fortified with heat killed desiccated Mycobacteria tuberculosis (MT). Each mouse received 300 μg of the MBP fragment (230 μg free base) and 200 μg MT followed by retrobulbar (i.v.) injection of 200 ng of B. pertussis toxin in 0.2 cc of saline. Forty-eight hours later, mice received a second injection of B. pertussis toxin. Mice in Experiment 1 were 8 to 9 weeks old; mice in Experiment 2 were 11 weeks old.
Animals were weighed and evaluated for symptoms of EAE before sensitization and frequently for 21 days. EAE score: (0.5=slight limp tail, 1=limp tail or slow to right, 1.5=slight limp tail and slow to right, 2=paresis/mild paralysis or incontinence, 2.5=mild paralysis and slow to right or complete paralysis (one hind limb), 3=hind limb paralysis (both), 3.5=hind limb paralysis (both) and limp torso; 4=additional fore limb paralysis, 4.5=head movement only, 5=moribund, death after previous EAE symptoms). Evaluators were blinded as to drug treatments and previous behavioral scores.
Disease symptoms were compared among groups for EAE severity, incidence, time to onset, cumulative score, deaths, and weight loss. Peak EAE score: the mean of highest score of each mouse in a group, independent of duration of symptoms; EAE incidence: the mean number of mice showing symptoms of EAE, defined as having EAE scores on any three consecutive days that total≥3.0. EAE deaths: An animal that died must have presented previous evidence of an EAE score greater than 0.5; EAE onset: the first of a 3-day series scoring a total of≥3.0. A Cumulative EAE score is calculated for each animal. A mean of all animals' cumulative score is then determined for each day. Maximum weight loss: the mean of the lowest weight for each animal in a group. (Note: The Cumulative EAE score and the Maximum weight loss can be influenced by death which eliminates severely diseased animals. The number of days that animals are scored also affects the cumulative score and can only be compared "within-trial"). Mice that die from dosing trauma or with no previous symptoms of EAE are deleted from the study. Experimental groups were assumed to be similar and were compared for statistical significance by a two-tailed t-test (p≤0.05).
The previous study was repeated with three larger groups of sensitized mice treated with (1) vehicle, (2) thiazolidinone at 10 mg/kg, or (3) thiazolidinone at 30 mg/kg.

IL-1β = assay: Production of cytokine IL-1β; assay type: cell-based
E-selectin = assay: Cell-surface expression of E-selectin; assay type: cell-based
[2] = 13-week toxicity study in monkeys; assay type: in vivo, monkey
Experimental: (§1) As noted above, the thiazolidinone is additionally well-suited to treating elderly patients because of its long duration of action and its substantial lack of undesirable side effects. Toxicologic properties of the thiazolidinone were evaluated in single-dose oral and intravenous (IV) studies in mice and rats and multidose oral studies in rats and dogs. The thiazolidinone was tested in dogs and monkeys in escalating-dose oral toxicity to determine the most sensitive nonrodent species. […] The initial 13-week dog study was repeated to evaluate the reproducibility of the perivascular effects. Dose range-finding studies were performed in pregnant rats and rabbits, and genotoxic potential was assessed in vitro and in vivo. […] Based on exposure at the no-effect dose in definitive studies, the rat appears to be the most sensitive species followed by the dog and the monkey, albeit with minor differences in exposure between the species.

cortical neurons = assay: Hypoxia/hypoglycemia-induced death of cortical neurons (LDH); assay type: cell-based, fetal Sprague-Dawley rat
Description: Cerebral ischemia can be modeled in vitro by lowering oxygen and glucose in the media of cortical neurons. For this study, cortical neurons were isolated from fetal Sprague-Dawley rat brains on Day E18. Cortical hemispheres were sectioned, dissociated, and triturated in Hank's Balanced Salt Solution (HBSS) containing 0.1% trypsin. Cell concentration was adjusted to 620,000 cells/mL by the addition of Dulbecoo's Modified Eagles Medium (DME) and Ham's Nutrient mixture F-12 (F12) 1:1 supplemented with heat-inactivated 10% horse serum and 6% fetal calf serum. A 100 μL aliquot of cell suspension was pipetted into each individual well of a 96-well polyethylenimine-coated culture plate. After 4 days in an incubator at 37° C. in an atmosphere of 8% CO2,100 μL medium was drawn off from each well and replaced with 100 μL of DME/F12 with 10% horse serum to which 30 μg/mL 5-fluoro-2-deoxyuridine and 70 μg/mL uridine were added to prevent further division of the glial cells. Cultures were read every 2 to 3 days thereafter by half volume (100 μL) replacement with DME/F12 (10% horse serum).
Cells were exposed to an hypoxic/hypoglycemic environment (91% N2 /[…] /1% O2, 1 mM glucose, 37° C.) for varying times in 50 μL HBSS. Cultures were then returned to the normoxic incubator (21% O2 /8% CO2,25 mM glucose) and quantitative assessment of cell death made 24 hours later by measurement of the intracellular enzyme lactate dehydrogenase (LDH). Cells were exposed for 1 hour to the thiazolidinone or other drugs prior to the induction of hypoxia/hypoglycemia.

[3] = Toxicology studies in rats; assay type: in vivo, rat
Experimental: as §1

[4] = rats, definitive 13-week studies

For `CC(C)(C)c1cc(/C=C2\SC(N)=NC2=O)cc(C(C)(C)C)c1O` [CI-1004, (Z)-5-[[3,5-bis(1,1-dimethylethyl)-4-hydroxyphenyl]methylene]-2-imino-4-thiazolidinone methanesulfonate], the “Cumulative Score” value ([1]; 10 mg/kg oral) was 31.3 ± 3.6, the Deaths ([1]; 10 mg/kg oral) was 10/20 and the “EAE Incidence” value ([1]; 10 mg/kg oral) was 19/19. The “EAE Onset” value ([1]; 10 mg/kg oral) was 11.8 days, the “EAE Peak Score” value ([1]; 10 mg/kg oral) was 4.5 ± 0.7 and the “Cumulative Score” value ([1]; 30 mg/kg oral) was 28.9 ± 2.7. The Deaths ([1]; 30 mg/kg oral) was 8/20, the “EAE Incidence” value ([1]; 30 mg/kg oral) was 20/20 and the “EAE Onset” value ([1]; 30 mg/kg oral) was 12.4 days. The “EAE Peak Score” value ([1]; 30 mg/kg oral) was 4.3 ± 0.2, the “daily EAE score or overall EAE responses” value ([1]; 10 or 30 mg/kg) was “no effect on the daily EAE score or overall EAE responses” and the “production of cytokine IL-1β” value (IL-1β) was “blocks production of the cytokine IL-1β”. For the same molecule, the “cell-surface expression of E-selectin” value (E-selectin) was “blocks”, the ileo-cecal erosions ([2]; 13-week study, not attributed to drug) was “Superficial ileo-cecal erosions identified microscopically were observed” and the NSAID-related changes ([2]; 13 weeks) was “No typical NSAID-related changes were observed”. The “duration of hypoxia/hypoglycemia before loss of viability” value (cortical neurons; 1 μM) was “no effect”, the “duration of hypoxia/hypoglycemia before loss of viability” value (cortical neurons; 10 μM) was “significantly increased the duration of hypoxia/hypoglycemia before the cells lost viability” and the “neuronal death after hypoxia/hypoglycemia” value (cortical neurons; 10 μM, 4 hours of exposure, control approximately 50% killed) was “no neuronal death”. The renal effects ([3]; female rats, 10 mg/kg) was “Renal effects were seen”, the toxic effects ([3]; male rats, 10 mg/kg) was “No effects were observed” and the hepatic enzyme induction ([3]; rats) was “hepatic enzyme induction which was not associated with overt organ toxicity”. For the same molecule, the gastrointestinal effects [3, 4] was “gastrointestinal effects” and the renal effects [3, 4] was “minor renal effects”.
